Experimental data as given in patent US12202818B2, “Compounds and methods for CD73 modulation and indications therefor” (Opna Bio SA, priority 2020, dated 2025).

Tests used:
[1] = target: T1, Human CD73 (amino acid residues 27-549) (Homo sapiens, UniProt P21589); experiment: CD73 enzymatic assay (luciferase-based indirect assay, CellTiter-Glo); assay type: biochemical; conditions: 0.4 nM CD73, 150 μM AMP, 1 hour at room temperature
T1 construct: Human CD73 (amino acid residues 27-549); His tag (N); made in house; host or cells: E. coli
T1 sequence (P21589 27-549): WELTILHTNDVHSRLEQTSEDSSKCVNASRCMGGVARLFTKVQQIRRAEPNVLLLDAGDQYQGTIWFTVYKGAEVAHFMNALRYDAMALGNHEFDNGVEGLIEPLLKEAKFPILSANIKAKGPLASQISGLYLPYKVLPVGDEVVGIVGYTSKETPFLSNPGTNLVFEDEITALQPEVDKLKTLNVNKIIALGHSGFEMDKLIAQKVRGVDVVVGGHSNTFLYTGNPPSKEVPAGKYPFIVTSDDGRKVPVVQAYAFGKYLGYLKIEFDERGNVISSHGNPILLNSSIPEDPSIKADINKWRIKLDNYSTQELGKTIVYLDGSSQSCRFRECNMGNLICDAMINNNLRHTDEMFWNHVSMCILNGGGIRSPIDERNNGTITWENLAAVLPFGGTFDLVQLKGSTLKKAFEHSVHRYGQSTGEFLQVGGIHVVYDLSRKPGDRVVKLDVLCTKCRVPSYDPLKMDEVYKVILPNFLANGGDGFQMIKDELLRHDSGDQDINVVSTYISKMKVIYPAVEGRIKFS
How it was run: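 N-His human CD73 (27-549) expressed in E. coli, 0.4 nM, incubated with 150 μM AMP and compound in 50 mM HEPES pH 7.4, 0.01% Tween-20, 1 h at RT. Remaining AMP read via CellTiter-Glo luminescence with 1 μM ATP after 30 min; IC50 from nonlinear regression of % inhibition.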

[2] = target: T2, human CD73 (Homo sapiens, UniProt P21589); experiment: Inhibitor activity against CD73 in cell based assay (CD73 expressing CHO-K1 cells); conditions: CHO-K1 cells expressing human CD73, 150 μM AMP, 4 hours of incubation; read-out: CHO-K1 CELL_VARIANT: CD73 IC50
T2 construct: expressed in transfected cells
T2 sequence (P21589 27-549): T1 sequence (P21589 27-549)
How it was run: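 Stable human CD73 CHO-K1 cells, 1×10^4/well, exposed to an 8-point 1:3 compound series (top 10 μM, 0.2% DMSO) plus 150 μM AMP for 4 h. Remaining AMP in the supernatant was read by CellTiter-Glo 2.0 luminescence with 1 μM ATP after 30 min at room temperature. IC50 came from nonlinear regression of % inhibition against cell and media-only controls.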

Row | IC50 [1] [µM] | IC50 [2] [µM] | Compound
1 | 0.001 to 10 | 0.001 to 10 | Cc1nn(C)c(C)c1-c1cc(F)nc(O[C@H]2CN(c3cn[nH]c(=O)c3Cl)C[C@@H]2F)c1 [P-0191, 4-chloro-5-((3S,4S)-3-fluoro-4-((6-fluoro-4-(1,3,5-trimethyl-1H-pyrazol-4-yl)pyridin-2-yl)oxy)pyrrolidin-1-yl)pyridazin-3(2H)-one]
2 | 0.001 to 10 | 0.001 to 10 | Cc1nn(CCO)c(C)c1-c1cc(F)nc(O[C@@H]2CCN(c3cn[nH]c(=O)c3Cl)C2)c1 [P-0192, (R)-4-chloro-5-(3-((6-fluoro-4-(1-(2-hydroxyethyl)-3,5-dimethyl-1H-pyrazol-4-yl)pyridin-2-yl)oxy)pyrrolidin-1-yl)pyridazin-3(2H)-one]
3 | 0.001 to 10 | 0.001 to 10 | Cc1n[nH]c(C)c1-c1cc(F)nc(O[C@@H]2CCN(c3cn[nH]c(=O)c3Cl)C2)c1 [P-0193, (R)-4-chloro-5-(3-((4-(3,5-dimethyl-1H-pyrazol-4-yl)-6-fluoropyridin-2-yl)oxy)pyrrolidin-1-yl)pyridazin-3(2H)-one]
4 | 0.001 to 10 | 0.001 to 10 | Cc1c(-c2cc(F)nc(O[C@@H]3CCN(c4cn[nH]c(=O)c4Cl)C3)c2)cnn1C [P-0194, (R)-4-chloro-5-(3-((4-(1,5-dimethyl-1H-pyrazol-4-yl)-6-fluoropyridin-2-yl)oxy)pyrrolidin-1-yl)pyridazin-3(2H)-one]
5 | 0.001 to 10 | 0.001 to 10 | Cc1noc(C)c1-c1cc(F)nc(O[C@@H]2CCN(c3cn[nH]c(=O)c3Cl)C2)c1 [P-0195, (R)-4-chloro-5-(3-((4-(3,5-dimethylisoxazol-4-yl)-6-fluoropyridin-2-yl)oxy)pyrrolidin-1-yl)pyridazin-3(2H)-one]
6 | 0.001 to 10 | 0.001 to 10 | Cc1c(-c2cccc(O[C@@H]3CCN(c4cn[nH]c(=O)c4Cl)C3)c2)cnn1C [P-0196, (R)-4-chloro-5-(3-(3-(1,5-dimethyl-1H-pyrazol-4-yl)phenoxy)pyrrolidin-1-yl)pyridazin-3(2H)-one]
7 | 0.001 to 10 | 0.001 to 10 | Cc1nn(C)cc1-c1cccc(O[C@@H]2CCN(c3cn[nH]c(=O)c3Cl)C2)c1 [P-0197, (R)-4-chloro-5-(3-(3-(1,3-dimethyl-1H-pyrazol-4-yl)phenoxy)pyrrolidin-1-yl)pyridazin-3(2H)-one]
8 | 0.001 to 10 | 0.001 to 10 | Cc1nn(C)c(C)c1-c1cccc(O[C@@H]2CCN(c3cn[nH]c(=O)c3Cl)C2)c1 [P-0198, (R)-4-chloro-5-(3-(3-(1,3,5-trimethyl-1H-pyrazol-4-yl)phenoxy)pyrrolidin-1-yl)pyridazin-3(2H)-one]
9 | 0.001 to 10 | 0.001 to 10 | Cc1nn(C)c(C)c1-c1cc(F)nc(O[C@@H]2CCN(c3cnn(CCO)c(=O)c3Cl)C2)c1 [P-0199, (R)-4-chloro-5 (3-((6-fluoro-4-(1,3,5-trimethyl-1H-pyrazol-4-yl)pyridin-2-yl)oxy)pyrrolidin-1-yl)-2-(2-hydroxyethyl)pyridazin-3(2H)-one]
10 | 0.001 to 10 | 0.001 to 10 | Cc1nn(C)c(C)c1-c1cc(F)nc(O[C@@H]2CCN(c3cn[nH]c(=O)c3Cl)C2)c1 [P-0200, (R)-4-chloro-5-(3-((6-fluoro-4-(1,3,5-trimethyl-1H-pyrazol-4-yl)pyridin-2-yl)oxy)pyrrolidin-1-yl)pyridazin-3(2H)-one]
11 | 0.001 to 10 | 0.001 to 10 | Cc1noc(C)c1-c1ccnc(O[C@@H]2CCN(c3cn[nH]c(=O)c3Cl)C2)c1 [P-0201, (R)-4-chloro-5-(3-((4-(3,5-dimethylisoxazol-4-yl)pyridin-2-yl)oxy)pyrrolidin-1-yl)pyridazin-3(2H)-one]
12 | 0.001 to 10 | 0.001 to 10 | CCNS(=O)(=O)c1ccc(-c2ccnc(O[C@@H]3CCN(c4cn[nH]c(=O)c4Cl)C3)c2)c(Cl)c1 [P-0202, (R)-3-chloro-4-(2-((1-(5-chloro-6-oxo-1,6-dihydropyridazin-4-yl)pyrrolidin-3-yl)oxy)pyridin-4-yl)-N-ethylbenzenesulfonamide]
13 | 0.001 to 10 | 0.001 to 10 | Cc1nn(C)c(C)c1-c1ccnc(O[C@@H]2CCN(c3cn[nH]c(=O)c3Cl)C2)c1 [P-0203, (R)-4-chloro-5-(3-((4-(1,3,5-trimethyl-1H-pyrazol-4-yl)pyridin-2-yl)oxy)pyrrolidin-1-yl)pyridazin-3(2H)-one]
14 | 0.001 to 10 | 0.001 to 10 | CCCS(=O)(=O)Nc1ccc(-c2ccnc(O[C@@H]3CCN(c4cn[nH]c(=O)c4Cl)C3)c2)c(F)c1 [P-0204, (R)-N-(4-(2-((1-(5-chloro-6-oxo-1,6-dihydropyridazin-4-yl)pyrrolidin-3-yl)oxy)pyridin-4-yl)-3-fluorophenyl)propane-1-sulfonamide]
15 | 0.001 to 10 | 0.001 to 10 | CC(C)C(=O)Nc1ccc(-c2ccnc(O[C@@H]3CCN(c4cn[nH]c(=O)c4Cl)C3)c2)c(F)c1 [P-0205, (R)-N-(4-(2-((1-(5-chloro-6-oxo-1,6-dihydropyridazin-4-yl)pyrrolidin-3-yl)oxy)pyridin-4-yl)-3-fluorophenyl)isobutyramide]
16 | 0.001 to 10 | 0.001 to 10 | O=C(Nc1ccc(-c2ccnc(O[C@@H]3CCN(c4cn[nH]c(=O)c4Cl)C3)c2)c(F)c1)C1CCCC1 [P-0206, (R)-N-(4-(2-((1-(5-chloro-6-oxo-1,6-dihydropyridazin-4-yl)pyrrolidin-3-yl)oxy)pyridin-4-yl)-3-fluorophenyl)cyclopentane-carboxamide]
17 | 0.001 to 10 | 0.001 to 10 | O=c1[nH]ncc(N2CC[C@@H](Oc3cc(-c4c(F)cc(S(=O)(=O)NC5CC5)cc4F)ccn3)C2)c1Cl [P-0207, (R)-4-(2-((1-(5-chloro-6-oxo-1,6-dihydropyridazin-4-yl)pyrrolidin-3-yl)oxy)pyridin-4-yl)-N-cyclopropyl-3,5-difluorobenzenesulfonamide]
18 | 0.001 to 10 | 0.001 to 10 | CCCNS(=O)(=O)c1cc(F)c(-c2ccnc(O[C@@H]3CCN(c4cn[nH]c(=O)c4Cl)C3)c2)c(F)c1 [P-0208, (R)-4-(2-((1-(5-chloro-6-oxo-1,6-dihydropyridazin-4-yl)pyrrolidin-3-yl)oxy)pyridin-4-yl)-3,5-difluoro-N-propylbenzenesulfonamide]
19 | 0.001 to 10 | 0.001 to 10 | Cc1c(-c2ccnc(O[C@@H]3CCN(c4cn[nH]c(=O)c4Cl)C3)c2)cnn1C [P-0209, (R)-4-chloro-5-(3-((4-(1,5-dimethyl-1H-pyrazol-4-yl)pyridin-2-yl)oxy)pyrrolidin-1-yl)pyridazin-3(2H)-one]
20 | 0.001 to 10 | 0.001 to 10 | Cc1cc(NS(=O)(=O)C2CC2)ccc1-c1ccnc(O[C@@H]2CCN(c3cn[nH]c(=O)c3Cl)C2)c1 [P-0210, (R)-N-(4-(2-((1-(5-chloro-6-oxo-1,6-dihydropyridazin-4-yl)pyrrolidin-3-yl)oxy)pyridin-4-yl)-3-methylphenyl)cyclopropane-sulfonamide]
21 | 0.001 to 10 | 0.001 to 10 | O=C(Nc1ccc(-c2ccnc(O[C@@H]3CCN(c4cn[nH]c(=O)c4Cl)C3)c2)c(F)c1)NC1CC1 [P-0211, (R)-1-(4-(2-((1-(5-chloro-6-oxo-1,6-dihydropyridazin-4-yl)pyrrolidin-3-yl)oxy)pyridin-4-yl)-3-fluorophenyl)-3-cyclopropylurea]
22 | 0.001 to 10 | 0.001 to 10 | O=C(Nc1ccc(-c2ccnc(O[C@@H]3CCN(c4cn[nH]c(=O)c4Cl)C3)c2)c(F)c1)C1CCC1 [P-0212, (R)-N-(4-(2-((1-(5-chloro-6-oxo-1,6-dihydropyridazin-4-yl)pyrrolidin-3-yl)oxy)pyridin-4-yl)-3-fluorophenyl)cyclobutane-carboxamide]
23 | 0.001 to 10 | 0.001 to 10 | CC(=O)Nc1ccc(-c2ccnc(O[C@@H]3CCN(c4cn[nH]c(=O)c4Cl)C3)c2)c(F)c1 [P-0213, (R)-N-(4-(2-((1-(5-chloro-6-oxo-1,6-dihydropyridazin-4-yl)pyrrolidin-3-yl)oxy)pyridin-4-yl)-3-fluorophenyl)acetamide]
24 | 0.001 to 10 | 0.001 to 10 | O=C(Nc1ccc(-c2ccnc(O[C@@H]3CCN(c4cn[nH]c(=O)c4Cl)C3)c2)c(F)c1)c1ccccc1 [P-0214, (R)-N-(4-(2-((1-(5-chloro-6-oxo-1,6-dihydropyridazin-4-yl)pyrrolidin-3-yl)oxy)pyridin-4-yl)-3-fluorophenyl)benzamide]
25 | 0.001 to 10 | 10 to 100 | O=c1[nH]ncc(N2CC[C@@H](Oc3cc(-c4ccnc(O[C@@H]5CCN(c6cn[nH]c(=O)c6Cl)C5)c4)ccn3)C2)c1Cl [P-0215, 5,5′-((3R,3′R)-([4,4′-bipyridine]-2,2′-diylbis(oxy))bis(pyrrolidine-3,1-diyl))bis(4-chloropyridazin-3(2H)-one)]
